For one series, the system named is Litomosoides carinii. Description: filaricidal activity on cotton rats infected with Litomosoides carinii. The format is in vivo, Litomosoides carinii (in cotton rats, Sigmodon hispidus). The following applies: sc, 1008 h, s.c., L. carinii-infected cotton rats, treated 14 weeks after infection, dissected 42 days after treatment, Probit analysis, read-out: ED90 (dosage at which 90% of the worms removed from the pleural cavity are dead). Here is the method: (§1) The filaricidal activity of the compounds of formula I can be determined, for example, on cotton rats (Sigmodon hispidus) which have been infected with Litomosoides carinii. The infection with L. carinii is transmitted by the blood-sucking mite Bdellonyssus bacoti in which the development of the microfilaria in infectious larvae takes place. The cotton rats are infected by exposing them to bites of infected mites. After fourteen (14) weeks, the infected groups of 2-4 animals are treated subcutaneously with the compound to be tested. Forty two (42) days after treatment with the compound to be tested, the experimental animals are dissected, and the adult filaria are removed from the pleural cavity. Living and dead or encapsulated worms are separated from one another and weighed. The filaricidal activity is expressed as the percentage proportion of dead macrofilaria per treatment group. The ED90 is then determined by means of Probit analysis using the values from different dosage groups. The ED90 is that dosage at which 90% of the worms removed from the pleural cavity are dead. In the following Table, the results which were obtained in the previously described test with representative members of the class of compound defined by formula I are compiled. Moreover, the Table contains data concerning the acute toxicity of some of the compounds of formula I in mg per kg obtained after single oral administration to mice.

Series [1] can be described thus: acute toxicity after single oral administration to mice. As to conditions: mouse, in vivo, p.o. As for the experimental part:
as §1, with “Moreover, the Table contains data concerning the acute toxicity of some of the compounds of formula I in mg per kg obtained after single oral administration to mice.” left out

With `CN(C)c1ccc(C=Nn2cc[n+](N=Cc3ccc(N(C)C)cc3)c2C=CN2CCOCC2)cc1.[Cl-]` [Compound C, 1,3-bis[[p-(dimethylamino)benzylidene]amino]-2-(2-morpholinovinyl)imidazolium chloride], in the series on Litomosoides carinii, the ED90 was determined as 0.55 mg/kg.

In the case of `CN(C)c1ccc(C=Nn2cc[n+](N=Cc3ccc(N(C)C)cc3)c2C=CN2CCCCC2)cc1.[Cl-]` [Compound B, 1,3-bis[[p-(dimethylamino)benzylidene]amino]-2-(2-piperidinovinyl)imidazolium chloride], the ED90 in the series on Litomosoides carinii was 2 mg/kg. The LD50 is the dose expected to kill half of the subjects tested. A low value points to a more toxic substance. Regarding `CN(C)c1ccc(C=Nn2cc[n+](N=Cc3ccc(N(C)C)cc3)c2-c2ccccc2)cc1.[Cl-]` [Compound D, 1,3-bis[[p-(dimethylamino)benzylidene]amino]-2-phenylimidazolium chloride], in the series on Litomosoides carinii, the ED90 was under 1 mg/kg. The compound also yielded an LD50 in series [1] of 1250 to 2500 mg/kg. For `CN(C)C=Cc1n(N=Cc2ccc(N(C)C)cc2)cc[n+]1N=Cc1ccc(N(C)C)cc1.[Cl-]` [Compound A, 1,3-bis[[p-(dimethylamino)benzylidene]amino]-2-[2-(dimethylamino)vinyl]imidazolium chloride] the same measures were 1 mg/kg and 312 to 625 mg/kg.
